# From ChEMBL document CHEMBL5537165, “Hepatitis C: The Story of a Long Journey through First, Second, and Third Generation NS3/4A Peptidomimetic Inhibitors. What Did We Learn?” (J Med Chem, 2024)
# pEC50, pIC50, pKi: −log10 of the molar value.
# What was measured:
# [1] = target: T1, Non-structural protein 4b (Hepacivirus hominis, UniProt F5B4I0); experiment: Inhibition of full length Hepatitis C virus genotype 1b NS4B expressed in Escherichia coli
# T1 sequence (F5B4I0 whole entry): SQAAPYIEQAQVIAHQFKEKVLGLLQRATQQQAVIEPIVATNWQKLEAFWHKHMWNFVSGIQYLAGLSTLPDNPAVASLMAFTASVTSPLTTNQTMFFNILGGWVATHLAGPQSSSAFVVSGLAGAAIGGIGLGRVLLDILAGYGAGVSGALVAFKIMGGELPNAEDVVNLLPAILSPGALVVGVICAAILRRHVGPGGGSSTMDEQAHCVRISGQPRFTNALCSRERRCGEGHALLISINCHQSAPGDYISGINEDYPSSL
# [2] = target: Replicase polyprotein 1ab (Severe acute respiratory syndrome coronavirus 2, UniProt P0DTD1); experiment: Inhibition of SARS-CoV-2 3CL protease by FRET assay
# [3] = target: T1, Non-structural protein 4b; experiment: Binding affinity to Hepatitis C virus genotype 3a NS4B assessed as inhibition constant
# [4] = target: T1, Non-structural protein 4b; experiment: Binding affinity to full length Hepatitis C virus genotype 1b NS4B expressed in Escherichia coli assessed as inhibition constant
# [5] = Inhibition of Hepatitis C virus NS3 protease; parameters: species or system Hepacivirus hominis
# [6] = target: T1, Non-structural protein 4b; experiment: Inhibition of Hepatitis C virus genotype 1a NS4B
# [7] = test system: SARS-CoV-2; experiment: Antiviral activity against SARS-CoV-2 infected in human Huh-7 cells assessed as reduction in viral growth; assay type: functional, organism-based; settings: Severe acute respiratory syndrome coronavirus 2, Huh-7
# [8] = Oral bioavailability in Beagle dog at 2 mg/kg; assay type: ADME, organism-based, Canis lupus familiaris; settings: in vivo
# [9] = AUC in Sprague-Dawley rat at 2 mg/kg, po; assay type: ADME, organism-based; settings: in vivo
# [10] = Half life in Sprague-Dawley rat at 5 mg/kg, po by LC-MS/MS analysis; assay type: ADME, organism-based; settings: in vivo
# [11] = Half life in Beagle dog at 5 mg/kg, po by LC-MS/MS analysis; assay type: ADME, organism-based, Canis lupus familiaris; settings: in vivo
# [12] = target: T1, Non-structural protein 4b; experiment: Inhibition of Hepatitis C virus genotype 1b NS4B
# [13] = target: T1, Non-structural protein 4b; experiment: Inhibition of Hepatitis C virus genotype 3a NS4B
# [14] = target: T1, Non-structural protein 4b; experiment: Binding affinity to Hepatitis C virus genotype 1b NS4B assessed as inhibition constant
smiles,measurement,setting,value
C=C[C@@H]1C[C@]1(NC(=O)[C@@H]1C[C@@H]2CN1C(=O)[C@H](C(C)(C)C)NC(=O)OCCC/C=C/c1ccc3ccnc(c3c1)O2)C(=O)NS(=O)(=O)C1CC1,pIC50,[1],6.68
C=C[C@@H]1C[C@]1(NC(=O)[C@@H]1C[C@@H](Oc2cc(-c3csc(NC(C)C)n3)nc3cc(OC)ccc23)CN1C(=O)[C@@H](NC(=O)OC1CCCC1)C(C)(C)C)P(=O)(O)O,pIC50,[2],9.05
COc1ccc2c(O[C@@H]3C[C@H]4C(=O)N[C@]5(P(=O)(O)Cc6ccccc6)C[C@H]5CCCCCCC[C@H](NC(=O)OC5CCCC5)C(=O)N4C3)cc(-c3csc(NC(C)C)n3)nc2c1,pIC50,[2],8.22
C=C[C@@H]1C[C@]1(NC(=O)[C@@H]1C[C@@H]2CN1C(=O)[C@H](C(C)(C)C)NC(=O)O[C@@H]1C[C@H]1CCCCCc1nc3ccc(OC)cc3cc1O2)C(=O)NS(=O)(=O)C1CC1,pKi,[3],9.51
same,pIC50,[1],7.89
same,pKi,[4],10.70
C=C[C@@H]1C[C@]1(NC(=O)[C@@H]1C[C@@H](Oc2cc(-c3ccccc3)nc3cc(OC)ccc23)CN1C(=O)[C@@H](NC(=O)OC1CCCC1)C(C)(C)C)C(=O)O,pIC50,[1],7.85
COc1ccc2c(O[C@@H]3C[C@H]4C(=O)N[C@]5(C(=O)O)C[C@H]5/C=C\CCCCC[C@H](NC(=O)OC5CCCC5)C(=O)N4C3)cc(-c3csc(NC(C)C)n3)nc2c1,pIC50,[5],5.52
C=C[C@@H]1C[C@]1(NC(=O)[C@@H]1C[C@@H](Oc2ncc(OC)c3ccccc23)CN1C(=O)[C@@H](NC(=O)OC(C)(C)C)C(C)(C)C)C(=O)NS(=O)(=O)C1CC1,pIC50,[6],8.15
same,pEC50,[7],7.72
C=C[C@@H]1C[C@]1(NC(=O)[C@@H]1C[C@@H](Oc2nccc3ccccc23)CN1C(=O)[C@@H](NC(=O)OC(C)(C)C)C(C)(C)C)C(=O)NS(=O)(=O)C1CC1,pIC50,[6],8.15
same,pEC50,[7],7.22
Cc1cnc(C(=O)N[C@H]2CCCCC/C=C\[C@@H]3C[C@@]3(C(=O)NS(=O)(=O)C3CC3)NC(=O)[C@@H]3C[C@@H](Oc4nc5ccccc5c5ccccc45)CN3C2=O)cn1,bioavailability,[8],41%
same,AUC,[9],19 µM·h
same,half-life,[10],24 min
same,half-life,[11],72 min
C=C[C@@H]1C[C@]1(NC(=O)[C@@H]1C[C@]2(CCc3c(c(C)nc4ccccc34)O2)CN1C(=O)[C@@H](NC(=O)OC(C)(C)C)C(C)(C)C)C(=O)NS(=O)(=O)C1(C)CC1,pIC50,[12],10.48
same,pIC50,[13],8.24
C=C[C@@H]1C[C@]1(NC(=O)[C@@H]1C[C@]23CCc4c(c(nc5ccc(OC)cc45)CCCCC[C@@H]4C[C@H]4OC(=O)N[C@@H](C4(C)CCCCC4)C(=O)N1C2)O3)C(=O)NS(=O)(=O)C1(C)CC1,pIC50,[13],8.35
C=C[C@@H]1C[C@]1(NC(=O)[C@@H]1C[C@@H](Oc2cc(-c3ccccc3)nc3cc(OC)ccc23)CN1C(=O)[C@@H](NC(=O)OC(C)(C)C)C(C)(C)C)C(=O)NS(=O)(=O)C1CC1,pIC50,[6],9.00
same,pEC50,[7],8.40
CC[C@@H]1C[C@]1(NC(=O)[C@@H]1C[C@@H]2CN1C(=O)[C@H](C(C)(C)C)NC(=O)OCC(C)(C)CCCCc1cccc3c1CN(C3)C(=O)O2)C(=O)NS(=O)(=O)C1CC1,pIC50,[12],8.52
same,pKi,[14],10.30
COc1ccc2c(O[C@@H]3C[C@H]4C(=O)N[C@]5(C(=O)O)C[C@H]5/C=C/CCCCC[C@H](NC(=O)OC(C)(C)C)C(=O)N4C3)cc(-c3ccccc3)nc2c1,pIC50,[5],7.96
Cc1nc2ccccc2c2c1O[C@]1(CC2)C[C@H]2C(=O)N[C@]3(C(=O)NS(=O)(=O)C4(C)CC4)C[C@H]3/C=C/CCCCC[C@H](NC(=O)OC(C)(C)C)C(=O)N2C1,pIC50,[12],10.89
same,pIC50,[13],9.15
C=C[C@H]1C[C@]1(NC(=O)[C@@H]1C[C@@H]2CN1C(=O)[C@H](C(C)(C)C)NC(=O)OCCC/C=C/c1cccc3c1CN(C3)C(=O)O2)C(=O)NS(=O)(=O)C1CC1,pIC50,[1],8.15
same,pKi,[4],10.30
